{"source": "PubChem BioAssay AID2124", "about": "(Sanford-Burnham Center for Chemical Genomics, 2009)", "assay": "cell-permeable autofluorescent compounds in GFP channel, dose response, artefact control, imaging, high-content imaging (AID 2124);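 on all read-outs here: cells exposed to compound for 48 hours before fixing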", "conditions": "cells, GFP-channel autofluorescence, high-content imaging, at 10 µM; for z-score: stronger effect = higher value", "note": "Records with an inconclusive call do not appear. Activity calls are given as the source filed them. How the calls were made is not given here; tested in MIN6 cells.", "data": [{"smiles": "O=[N+]([O-])c1ccc(C2=NN(c3ccccc3)C(c3ccco3)C2)cc1", "note": "(stereo not given)", "values": [{"measurement": "z-score", "value": 0.17}, {"measurement": "cell count", "value": 3180, "unit": "cells"}]}, {"smiles": "CCCCCCc1cc2cc(-c3nnc(-c4ccccc4OC)o3)c(=O)oc2cc1O", "values": [{"measurement": "z-score", "value": "-0.21 (inactive)"}, {"measurement": "cell count", "value": 2630, "unit": "cells"}]}, {"smiles": "CN(C)c1ccc(/C=C2\\SC(=O)N(CCc3nnc(N)s3)C2=O)cc1", "values": [{"measurement": "z-score", "value": "-0.3 (inactive)"}, {"measurement": "cell count", "value": 3290, "unit": "cells"}]}, {"smiles": "CCN(CC)c1ccc(/C=C2\\SC(=O)N(C(C)C)C2=O)o1", "values": [{"measurement": "z-score", "value": 0.48}, {"measurement": "cell count", "value": 941, "unit": "cells"}]}, {"smiles": "O=C(CSc1nc2ccc(Cl)cc2o1)NCc1ccc2c(c1)OCO2", "values": [{"measurement": "z-score", "value": "-0.33 (inactive)"}, {"measurement": "cell count", "value": 3140, "unit": "cells"}]}, {"smiles": "O=C(NCCc1csc(-c2ccccc2)n1)c1ccccc1F", "values": [{"measurement": "z-score", "value": "-0.25 (inactive)"}, {"measurement": "cell count", "value": 3010, "unit": "cells"}]}, {"smiles": "CC(C)(CNS(=O)(=O)c1ccc(Cl)cc1)N1CCCCC1", "values": [{"measurement": "z-score", "value": "-0.34 (inactive)"}, {"measurement": "cell count", "value": 3730, "unit": "cells"}]}, {"smiles": "CCCOc1ccc(-c2nn(-c3ccccc3)cc2/C=C2\\SC(=S)N(C3CCS(=O)(=O)C3)C2=O)cc1", "note": "(stereo not given)", "values": [{"measurement": "z-score", "value": "-0.23 (inactive)"}, {"measurement": "cell count", "value": 2830, "unit": "cells"}]}, {"smiles": "COc1cccc(C(=O)CN2C(=O)C(C)(C)Oc3ccc(C(=O)N4CCCCCC4)cc32)c1", "values": [{"measurement": "z-score", "value": "-0.33 (inactive)"}, {"measurement": "cell count", "value": 3680, "unit": "cells"}]}, {"smiles": "S=c1[nH]nc(-c2ccccc2)n1CC1CCCO1", "note": "(stereo not given)", "values": [{"measurement": "z-score", "value": "-0.33 (inactive)"}, {"measurement": "cell count", "value": 3250, "unit": "cells"}]}, {"smiles": "COc1cc2c3nnc(-c4ccc(F)cc4)c-3cn(Cc3ccc(F)cc3)c2cc1OC", "values": [{"measurement": "z-score", "value": 2.53}, {"measurement": "cell count", "value": 274, "unit": "cells"}]}, {"smiles": "Cc1cc(C)n(C(=O)CCC2COc3ccccc3O2)n1", "note": "(stereo not given)", "values": [{"measurement": "z-score", "value": "-0.25 (inactive)"}, {"measurement": "cell count", "value": 2940, "unit": "cells"}]}, {"smiles": "COc1nc(OC)nc(N2CCC(C(=O)NCc3cccs3)CC2)n1", "values": [{"measurement": "z-score", "value": "-0.33 (inactive)"}, {"measurement": "cell count", "value": 2940, "unit": "cells"}]}, {"smiles": "Cc1n[nH]c(C)c1N1C(=O)c2cccc3c(N4CCCCCC4)ccc(c23)C1=O", "values": [{"measurement": "z-score", "value": 0.33}, {"measurement": "cell count", "value": 2690, "unit": "cells"}]}, {"smiles": "Cc1ccc(-c2cc(-c3ccco3)c3c(N)c(C(=O)NN)oc3n2)cc1", "values": [{"measurement": "z-score", "value": "-0.32 (inactive)"}, {"measurement": "cell count", "value": 2700, "unit": "cells"}]}, {"smiles": "C=CCNC(=O)c1c2c(nc3ccccc13)-c1ccccc1CC2", "values": [{"measurement": "z-score", "value": "-0.39 (inactive)"}, {"measurement": "cell count", "value": 3270, "unit": "cells"}]}, {"smiles": "CCn1c2ccccc2c2nnc(SCC(=O)Nc3cc(C)on3)nc21", "values": [{"measurement": "z-score", "value": "-0.33 (inactive)"}, {"measurement": "cell count", "value": 3100, "unit": "cells"}]}, {"smiles": "CN(C)c1ccc(/C=C2\\N=C(c3ccc(Cl)c([N+](=O)[O-])c3)NC2=O)cc1", "values": [{"measurement": "z-score", "value": "-0.33 (inactive)"}, {"measurement": "cell count", "value": 2940, "unit": "cells"}]}, {"smiles": "COC(=O)c1sccc1NC(=O)c1cc(OC)c(OC)c(OC)c1", "values": [{"measurement": "z-score", "value": "-0.39 (inactive)"}, {"measurement": "cell count", "value": 3020, "unit": "cells"}]}, {"smiles": "CCCNC(=O)N1CCC(C(=O)c2ccc(Cl)cc2)CC1", "values": [{"measurement": "z-score", "value": "-0.38 (inactive)"}, {"measurement": "cell count", "value": 2970, "unit": "cells"}]}, {"smiles": "COc1ccccc1NS(=O)(=O)c1cc([N+](=O)[O-])ccc1N/N=C/c1sc(N2CCOCC2)nc1-c1ccccc1", "values": [{"measurement": "z-score", "value": 0.22}, {"measurement": "cell count", "value": 2550, "unit": "cells"}]}, {"smiles": "CN(C)C(=O)CN(c1ccc2c(c1)OCO2)S(C)(=O)=O", "values": [{"measurement": "z-score", "value": "-0.33 (inactive)"}, {"measurement": "cell count", "value": 2880, "unit": "cells"}]}, {"smiles": "COc1ccc(C2/C=C\\CN(S(=O)(=O)c3cccc4cccnc34)CC(=O)N2Cc2ccc(F)cc2)cc1", "note": "(stereo not given)", "values": [{"measurement": "z-score", "value": "-0.39 (inactive)"}, {"measurement": "cell count", "value": 3760, "unit": "cells"}]}, {"smiles": "Cc1cc(N/N=C/c2ccc([N+](=O)[O-])o2)nc2ccccc12", "values": [{"measurement": "z-score", "value": 0.28}, {"measurement": "cell count", "value": 733, "unit": "cells"}]}, {"smiles": "NS(=O)(=O)c1ccc(NC=C2C(=O)OC3(CCCCC3)OC2=O)cc1", "values": [{"measurement": "z-score", "value": "-0.25 (inactive)"}, {"measurement": "cell count", "value": 3080, "unit": "cells"}]}, {"smiles": "CCS(=O)(=O)c1ccc2oc(SCC(=O)NC3CCCC(C)C3C)nc2c1", "note": "(stereo not given)", "values": [{"measurement": "z-score", "value": "-0.26 (inactive)"}, {"measurement": "cell count", "value": 2950, "unit": "cells"}]}, {"smiles": "Cc1cc(C2C(C#N)=C(N)Oc3n[nH]c(C)c32)c(C)s1", "note": "(stereo not given)", "values": [{"measurement": "z-score", "value": "-0.25 (inactive)"}, {"measurement": "cell count", "value": 3010, "unit": "cells"}]}, {"smiles": "CCCCC(=O)Nc1ccc2c(c1)nc1n2CCSC1", "values": [{"measurement": "z-score", "value": "-0.38 (inactive)"}, {"measurement": "cell count", "value": 2870, "unit": "cells"}]}, {"smiles": "C=CCN1C(=O)/C(=C/c2ccc(N3CCOCC3)o2)C(=O)NC1=S", "values": [{"measurement": "z-score", "value": "-0.32 (inactive)"}, {"measurement": "cell count", "value": 3270, "unit": "cells"}]}, {"smiles": "N#C/C(=C/c1ccc(N2CCCCCC2)o1)c1ccc(Cl)cc1", "values": [{"measurement": "z-score", "value": 0.94}, {"measurement": "cell count", "value": 277, "unit": "cells"}]}, {"smiles": "C=CCNC(=O)C1CCN(S(=O)(=O)c2ccc(Br)cc2)CC1", "values": [{"measurement": "z-score", "value": "-0.33 (inactive)"}, {"measurement": "cell count", "value": 3230, "unit": "cells"}]}, {"smiles": "CC(C)(C)c1ccc(OCC(=O)Nc2ccc3c4c(cccc24)C(=O)NC3=O)cc1", "values": [{"measurement": "z-score", "value": "-0.31 (inactive)"}, {"measurement": "cell count", "value": 2490, "unit": "cells"}]}, {"smiles": "CCCn1c(SCC(=O)NC2CCCCC2)nnc1-c1ccncc1", "values": [{"measurement": "z-score", "value": "-0.25 (inactive)"}, {"measurement": "cell count", "value": 2960, "unit": "cells"}]}, {"smiles": "O=C(Nc1ccc(N2CCCCC2)cc1)c1cccnc1", "values": [{"measurement": "z-score", "value": "-0.39 (inactive)"}, {"measurement": "cell count", "value": 3060, "unit": "cells"}]}, {"smiles": "Cc1cc(C)n(-c2ccc(OCC(=O)O)nn2)n1", "values": [{"measurement": "z-score", "value": "-0.33 (inactive)"}, {"measurement": "cell count", "value": 3400, "unit": "cells"}]}, {"smiles": "CN1CCN(C(=O)/C(=C\\c2cccs2)NC(=O)c2cccs2)CC1", "values": [{"measurement": "z-score", "value": "-0.33 (inactive)"}, {"measurement": "cell count", "value": 3070, "unit": "cells"}]}, {"smiles": "Cc1cc(SCCOc2ccccc2)nc(N)n1", "values": [{"measurement": "z-score", "value": "-0.39 (inactive)"}, {"measurement": "cell count", "value": 3470, "unit": "cells"}]}, {"smiles": "CCCCCCN1C=CC(=C/C=C(\\C#N)C(=O)OCC)C=C1", "values": [{"measurement": "z-score", "value": 0.43}, {"measurement": "cell count", "value": 3270, "unit": "cells"}]}, {"smiles": "Cc1csc(NC(=O)CN(C)S(=O)(=O)c2cccc3cccnc23)n1", "values": [{"measurement": "z-score", "value": "-0.33 (inactive)"}, {"measurement": "cell count", "value": 3250, "unit": "cells"}]}, {"smiles": "O=C(C1=C[C@H](C2CC2)C[C@H](OCCCCO)O1)N1CCN(Cc2ccccc2)CC1", "values": [{"measurement": "z-score", "value": "-0.38 (inactive)"}, {"measurement": "cell count", "value": 2880, "unit": "cells"}]}]}
